Assay results: patent US20010009995A1, “Oxybutynin therapy” (priority 1998, published 2001)

Conditions: human, in vivo

SMILES: CCNCC#CCOC(=O)C(O)(c1ccccc1)C1CCCCC1 (stereo not shown) [DESOXY, desethyloxybutynin]
- t1/2 life of DESOXY compared to OXY: shorter
